Experimental data: patent US11058680B2, “Combinations of opioid/TLR4 antagonists and acetaminophen for use in the treatment of emotional pain and insomnia” (Allodynic Threapeutics, LLC, priority 2016, dated 2021)

Experiments:
[1] = test system: patient with chronic low back pain, tendinitis and fear from a near airplane crash; experiment: Example 5 case study; type: in vivo, human; details: acetaminophen and ibuprofen prior to study; naltrexone 2.25 mg and acetaminophen 325 mg Q.I.D
[2] = test system: patient with lower back and leg pain and emotional pain due to separation from a child; experiment: Example 12 case study, patient diary; details: for API, average pain intensity (0-10 NRS) / Insomnia (0-10 NRS) / PRSI, Pain Related Sleep Interference (0-10 NRS) / WEP, Worst Emotional Pain (0-10 NRS) / WPI, Worst Pain Intensity (0-10 NRS): Ibuprofen 800 mg T.I.D. PRN 2006-2010
[3] = test system: patients with low back pain (LBP); experiment: Naltrexone/acetaminophen open-label pilot study for low back pain, daily patient diary (WPI, API, WEP, PRSI, insomnia, PGIC, energy, activity); type: in vivo, human
Procedure: Twenty patients of whom 16 had chronic low back pain (CLBP), three had acute LBP and one had pain due to Temporomandibular disorders (TMD) were evaluated in an open label pilot study. […] The patient reported diary questionnaire included the following questions.
Question No. 1: Choose one number that best describes the “Worst Pain” in your lower back in the last 24 hours (WPI) [measured on an 11-point NRS (0=no pain, 10=worst pain possible)].
Question No. 2: Choose one number that best describes the “Average Pain” in your lower back in the last 24 hours (API) [measured on an 11-point NRS (0=no pain, 10=worst pain possible)].
Question No. 3: Choose one number that best describes the “Worst Emotional Pain” you experienced in the last 24 hours. (E.g., “Today, I experienced hurt feelings, and/or anger, and/or fear, and/or sadness”).
Question No. 4: Choose one number that best describes how pain has interfered with your sleep in the last 24 hours [Pain Related Sleep Interference (PRSI) measured on an 11-point NRS (0=no interference, 10=complete interference)].
Question No. 5: Have you experienced difficulty sleeping or falling asleep (insomnia) in the last 24 hours [measured on an 11-point NRS (0=no insomnia, 10=worst insomnia possible)].

[4] = test system: patient with emotional pain due to football team losses and low back pain; experiment: Example 4 case study, patient diary; type: in vivo, human
[5] = test system: patient with emotional pain due to severe pain caused by acute spinal disk herniation; experiment: Example 6 case study, patient diary; type: in vivo, human
Procedure: They scheduled an elective inguinal hernia surgery during a time that they had already planned time off from work for their spouse and themself. […] The day after the incident, they took acetaminophen 3000 mg. […] They were in the process of purchasing a home, which they found stressful.

[6] = test system: patient with lower back pain and emotional pain due to conflict at work; experiment: Example 7 case study; type: in vivo, human; details: acetaminophen 4 times, one day, naltrexone 2.25 mg and Tylenol 325 mg twice daily
[7] = test system: patient with lower back pain and emotional pain due to anger with poorly-performing employees; experiment: Example 10 case study, patient diary; type: in vivo, human
From the text: A person building contractor with a history of lower back pain reported emotional pain due to frustration with their three employees' poor job performance. […] Treatment with naltrexone and acetaminophen eliminated their physical, as well as their emotional pain, which happened overnight.

[8] = test system: patient with emotional pain due to relationship break-up; experiment: Example 11 case study, patient diary; type: in vivo, human; details: APAP 325 mg Q.I.D., Sep. 25-Oct. 2, 2015
migraine = details: literature, Brandes et al. JAMA 2007; cited from earlier work
[9] = test system: patient with emotional pain due to adjustment disorder, grieving passing of a pet; experiment: Example 2 case study, emotional pain diary on 4-point scale (0=none, 1=mild, 2=moderate, 3=severe); type: in vivo, human; details: xanax before study treatment
From the text: The patient experienced a stressful life event (bereavement) that interfered with social functioning. […] The emotional pain intensity was rated on a 4-point unipolar scale (0=none, 1=mild, 2=moderate, 3=severe).

[10] = Naltrexone 2.25 mg Q.I.D./Clonidine 0.025 mg Q.I.D. 2010-2015, APAP 325 mg Q.I.D. Jun. 29-Jul. 6, 2015, Naltrexone 2.5 mg Q.I.D. to Jul. 8, 2015, Naltrexone 2.25 mg/APAP 325 mg Q.I.D. Jul. 9-Oct. 4, 2015
[11] = on treatment, last day, APAP 325 mg alone (N = 8, avg 9.83 days), NTX/APAP 2.25/325 mg (n = 18, avg 25.4 days)
[12] = treatment period, APAP 325 mg alone, NTX/APAP 2.25/325 mg
[13] = APAP 325 mg Q.I.D. Jun. 29-Jul. 8, 2015, NTX 2.25 mg/APAP 325 mg Q.I.D. Jul. 9-Aug. 9, 2015
[14] = APAP 325 mg Q.I.D., NTX 2.25 mg/APAP 325 mg Q.I.D.
[15] = APAP 1000 mg TID, Aug. 18-19, 2015
[16] = acetaminophen 3000 mg, the day after the incident
[17] = APAP 325 mg Q.I.D., Sep. 29-Oct. 1, 2015
[18] = acetaminophen for three days, naltrexone and acetaminophen, overnight

SMILES: CC(C)Cc1ccc(C(C)C(=O)O)cc1 (stereo not shown) [Ibuprofen]
- relief of physical pain (low back, foot) [1]: without significant relief
- API, average pain intensity (0-10 NRS) [2, 10]: 5.5
- Insomnia (0-10 NRS) [2, 10]: 9
- PRSI, Pain Related Sleep Interference (0-10 NRS) [2, 10]: 7
- WEP, Worst Emotional Pain (0-10 NRS) [2, 10]: 7
- WPI, Worst Pain Intensity (0-10 NRS) [2, 10]: 6

SMILES: CC(=O)Nc1ccc(O)cc1 [acetaminophen]
- API Avg., average pain intensity (0-10 NRS) [3, 11]: 4.25
- Activity Avg., change in activity level (1-7 Likert) [3, 11]: 4.67
- Energy Avg., change in energy level (1-7 Likert) [3, 11]: 4.67
- Insomnia Avg. (0-10 NRS) [3, 11]: 4.33
- PGIC Avg., Patient Global Impression of Change (1-7 Likert, 7 = very much improved) [3, 11]: 5.00
- PRSI Avg., Pain Related Sleep Interference (0-10 NRS) [3, 11]: 4.00
- WEP Avg., Worst Emotional Pain (0-10 NRS) [3, 11]: 5.17
- WPI Avg., Worst Pain Intensity (0-10 NRS) [3, 11]: 5.25
- Mean Improvement from Baseline, API (0-10 NRS) [3, 12]: 1.28
- Mean Improvement from Baseline, Insomnia (0-10 NRS) [3, 12]: −0.23
- Mean Improvement from Baseline, PRSI (0-10 NRS) [3, 12]: 0.90
- Mean Improvement from Baseline, WEP (0-10 NRS) [3, 12]: 0.14
- Mean Improvement from Baseline, WPI (0-10 NRS) [3, 12]: 1.43
- API, average pain intensity (0-10 NRS) [4, 13]: 3
- Insomnia (0-10 NRS) [4, 13]: 0
- PRSI, Pain Related Sleep Interference (0-10 NRS) [4, 13]: 0
- WEP, Worst Emotional Pain (0-10 NRS) [4, 13]: 2
- WPI, Worst Pain Intensity (0-10 NRS) [4, 13]: 3
- Improvement from baseline, API [4, 14]: 25%
- Improvement from baseline, WEP [4, 14]: 33%
- Improvement from baseline, WPI [4, 14]: 40%
- ability to handle emotional disturbance due to team losses ([4]; Tylenol 325 mg, 4 times daily for 10 days): did not report improvement
- elimination/reduction of emotional and physical pain symptoms ([4]; naltrexone and acetaminophen for one month, acetaminophen alone): 25%-40%
- relief of physical pain (low back, foot) [1]: without significant relief
- API, average pain intensity (0-10 NRS) [5, 15]: 8
- Insomnia (0-10 NRS) [5, 15]: 9
- PGIC (1-7 Likert) [5, 15]: 5
- PRSI, Pain Related Sleep Interference (0-10 NRS) [5, 15]: 9
- WEP, Worst Emotional Pain (0-10 NRS) [5, 15]: 6
- WPI, Worst Pain Intensity (0-10 NRS) [5, 15]: 9
- emotional pain (NRS) [5, 16]: 6 /10
- insomnia improved by [5, 16]: 1 point
- pain level improved by [5, 16]: 1 point
- emotional pain (patient report) [6]: did not notice a change
- back pain (patient report) ([6]; within three days): slight improvement
- API, average pain intensity (0-10 NRS) [7, 17]: 2.5
- Insomnia (0-10 NRS) [7, 17]: 2
- PGIC (1-7 Likert) [7, 17]: 5
- PRSI, Pain Related Sleep Interference (0-10 NRS) [7, 17]: 4
- WEP, Worst Emotional Pain (0-10 NRS) [7, 17]: 3
- WPI, Worst Pain Intensity (0-10 NRS) [7, 17]: 4
- back/physical pain (patient report) [7, 18]: improved their back pain
- emotional pain (patient report) [7, 18]: remained unchanged
- API, average pain intensity (0-10 NRS) [8]: 5
- Insomnia (0-10 NRS) [8]: 10
- PGIC (1-7 Likert) [8]: 5
- PRSI, Pain Related Sleep Interference (0-10 NRS) [8]: 3.5
- WEP, Worst Emotional Pain (0-10 NRS) [8]: 10
- WPI, Worst Pain Intensity (0-10 NRS) [8]: 7
- API, average pain intensity (0-10 NRS) [2, 10]: 3.5
- Insomnia (0-10 NRS) [2, 10]: 5.5
- PRSI, Pain Related Sleep Interference (0-10 NRS) [2, 10]: 4.5
- WEP, Worst Emotional Pain (0-10 NRS) [2, 10]: 5.0
- WPI, Worst Pain Intensity (0-10 NRS) [2, 10]: 4.5
- PGIC (1-7 Likert) [2, 10]: 5
- emotional pain due to separation from child (patient report) ([2]; naltrexone/clonidine, acetaminophen 325 mg four times daily 5 days, naltrexone alone 12 days, naltrexone 2.25 mg and acetaminophen 325 mg four times daily almost three months): same level of emotional pain

SMILES: CNS(=O)(=O)Cc1ccc2[nH]cc(CCN(C)C)c2c1 [sumatriptan]
- 2-hour headache (migraine) pain-free (migraine): 25%

SMILES: Cc1nnc2n1-c1ccc(Cl)cc1C(c1ccccc1)=NC2 [xanax]
- relief of emotional pain (patient report) [9]: did not help
